Legend:
[1] = system: Msgal1-L1; test: Solid-phase binding-inhibition assay: rMsgal1-L1-HRP binding to asialofetuin (ASF) inhibited by carbohydrates; parameters: species or system Morone saxatilis; conditions: for Relative inhibitory activity, Morone saxatilis: I50 normalized to Galβ1,4Glc (lactose) = 1.0, rMsgal1-L1-HRP binding to ASF, pH 8.0, 23°C, 10 mM ME
Protocol: Binding of the rMsgal1-L1–HRP to asialofetuin (ASF) and its inhibition by carbohydrates were assessed and optimized as reported elsewhere ([Ahmed et al., 1996], [2002]). […] Thus, the inhibition of galectin binding to immobilized ASF by mono- and oligosaccharides is a standard system to analyze the fine specificity of novel galectins. Briefly, ASF (0.5 μg/100 μl/well) in 0.1 M Na2CO3/0.02% NaN3 (pH 9.6) was adsorbed onto the plastic wells (37°C, 3 h) and the bound glycoprotein was fixed with 2% formaldehyde (37°C, 30 min). The plates were washed three times with PBS (azide-free)/0.05% Tween 20, and incubated with the Msgal1-L1–HRP conjugate (10 ng/100 μl/well for binding assays) or with a pre-incubated mixture of equal volume of conjugate and varying concentrations of test ligands (for binding-inhibition assays). After incubation (4°C, 1 h) the plates were washed with ice-cold azide-free PBS-Tween 20 buffer and the bound peroxidase activity was assayed with 2,2’-azino-bis(3-ethylbenzothiazoline-6-sulfonic acid) (ABTS) as previously described ([Ahmed et al., 1996]).
The carbohydrate-binding specificity of Msgal1-L1 was determined by analyzing the binding of the rMsgal1-L1–HRP conjugate to ASF in the presence of several saccharides in a solid-phase assay under the optimal conditions of pH and temperature established above (pH 8.0; 23°C) and under a reducing environment (10 mM ME) ([Ahmed et al., 1996], [2002]). For each test saccharide, a complete inhibition curve was obtained, and the molar concentrations that inhibited the binding of the lectin conjugate to ASF by 50% (I 50) were calculated and normalized with respect to Galβ1,4Glc (lactose), which was included in each plate as a standard ( Table 2 ). The binding-inhibition profile for Msgal1-L1 was generally similar to those for proto type galectins from zebrafish (D. rerio), toad (B. arenarum), and domestic cow (Bos taurus). […] The presence of a fucose unit linked in α1,2 to the non-reducing Gal moiety decreased the inhibitory effectiveness in about one-third as compared to lactose, most likely by steric hindrance of the protein–Gal interaction. […] A hydrophobic phenyl group linked to the reducing end of Galβ1,3GlcNAc strengthened the Msgal1-L1 interaction with the ligand 6.5-fold.

[2] = system: proto type galectin from toad (Bufo arenarum); conditions: relative to Galβ1,4Glc = 1.0; comparison values, reference not given; cited from earlier work
[3] = system: proto type galectin from domestic cow (Bos taurus); conditions: relative to Galβ1,4Glc = 1.0; comparison values, reference not given; cited from earlier work
[4] = system: proto type galectin from zebrafish (Danio rerio); conditions: relative to Galβ1,4Glc = 1.0; comparison values, reference not given; cited from earlier work
[5] = system: striped bass epidermal mucus; test: Dot blot binding to untreated and glycosidase-treated epidermal mucus fractions; parameters: species or system Morone saxatilis; conditions: pre-incubation of rMsgal1-L1 with lactose 200 mM; inhibition not complete
Protocol: The crude epidermal mucus was cleared of particulate matter and fractionated by centrifugation at 17,000 rpm for 45 min at 4°C, resulting in three distinct layers: a clear upper layer of lower viscosity, an opaque more viscous layer immediately below that likely contain the highest concentration of mucins, and a loose pellet of solid cellular debris. Fractions obtained from multiple centrifugations were separated and corresponding layers were pooled as “clear upper layer pool” and “viscous intermediate layer pool.”
Pooled mucus layers were treated with N-glycosidase F [peptide-N ^4-(acetyl-β-glucosaminyl) asparagine amidase], O-glycosidase (O-glycopeptide endo-D-galactosyl-N-acetyl-α-galactosamino hydrolase, Roche), endoglycosidase H, or all three enzymes combined. […]
Aliquots (100 μL/well) of untreated or glycosidase-treated epidermal mucus pooled layers were dot-blotted onto PVDF membranes using a Bio-Dot Microfiltration Apparatus (Bio-Rad) under vacuum in replicate wells. […] For detection of endogenous ligands for Msgal1-L1, the membranes were blocked in 5% BSA/PBS, probing with rMsgal1-L1–HRP with or without lactose (200 mM), and detected with Stable-DAB (Invitrogen).

Compound	Fold less effective than lactose as inhibitor ([1]; Msgal1-L1 binding to ASF)	Inhibitory effect (in words) ([1]; Msgal1-L1 binding inhibition)	Relative inhibitory activity, Bufo arenarum [2]	Relative inhibitory activity, Bos taurus [3]	Relative inhibitory activity, Danio rerio [4]	Relative inhibitory activity, Morone saxatilis [1]	Inhibition of Msgal1-L1 binding to mucus layers [5]	Relative inhibitory activity, Morone saxatilis ([1]; listed as Galβ1,4GlcNAc)	Relative inhibitory activity, Morone saxatilis ([1]; listed as Thiodigalactoside)
CC(=O)N[C@H]1[C@@H](O[C@H]2[C@@H](O)[C@@H](CO)O[C@@H](O)[C@@H]2O[C@@H]2O[C@@H](C)[C@@H](O)[C@@H](O)[C@@H]2O)O[C@H](CO)[C@H](O)[C@@H]1O [A-trisaccharide]	threefold less effective	–	–	–	–	–	–	–	–
CC(=O)N[C@H]1C(O)O[C@H](CO)[C@H](O)[C@@H]1OC1O[C@H](CO)[C@H](O)[C@H](O)[C@H]1O (stereo partly shown) [Gal1,3GalNAc]	–	negligible	–	–	–	–	–	–	–
O=C[C@H](O)[C@@H](O)[C@@H](O)[C@H](O)CO [Gal, D-galactose]	–	–	0.005	0.0079	0.004	0.007	–	–	–
CC(=O)N[C@H]1[C@H](O[C@H]2[C@H](O)[C@@H](CO)OC(O)[C@@H]2O)O[C@H](CO)[C@H](O)[C@@H]1O (stereo partly shown) [GalNacβ1,3Glc]	–	–	4.45	–	–	2.8	–	–	–
OC[C@H]1O[C@H](OCC2O[C@@H](O)[C@H](O)[C@@H](O)[C@@H]2O)[C@H](O)[C@@H](O)[C@H]1O (stereo partly shown) [Galα1,6Glc]	–	–	0.0075	0.0053	0.004	0.019	–	–	–
CO[C@H]1O[C@H](CO)[C@H](O)[C@H](O)[C@H]1O [Galα-OMe]	–	–	0.03	0.01	0.006	0.027	–	–	–
OC[C@H]1O[C@@H](O[C@H]2[C@@H](O)COC(O)[C@@H]2O)[C@H](O)[C@@H](O)[C@H]1O (stereo partly shown) [Galβ1,3Ara]	–	–	1.28	2.56	2.1	4.10	–	–	–
OC[C@H]1O[C@@H](O[C@@H]2[C@@H](CO)O[C@](O)(CO)[C@H]2O)[C@H](O)[C@@H](O)[C@H]1O [Galβ1,4Fru f]	–	–	1.0	–	1.0	1.9	–	–	–
OC[C@H]1O[C@@H](O[C@H]2[C@H](O)[C@@H](O)[C@H](O)O[C@@H]2CO)[C@H](O)[C@@H](O)[C@H]1O [Galβ1,4Glc, lactose]	–	–	1.0	1.0	1.0	1.0	substantially reduced	–	–
CC(=O)N[C@H]1C(O)O[C@H](CO)[C@@H](O[C@@H]2O[C@H](CO)[C@H](O)[C@H](O)[C@H]2O)[C@@H]1O (stereo partly shown) [Galβ1,4GlcNac, N-acetyllactosamine]	–	–	3.75	5.54	7.9	3.07	–	approximately 3	–
CO[C@@H]1O[C@H](CO)[C@@H](O[C@@H]2O[C@H](CO)[C@H](O)[C@H](O)[C@H]2O)[C@H](O)[C@H]1O [Galβ1,4Glcβ(1-0)Me]	–	–	2.14	1.33	2.9	1.74	–	–	–
Nc1ccc(O[C@@H]2O[C@H](CO)[C@@H](O[C@@H]3O[C@H](CO)[C@H](O)[C@H](O)[C@H]3O)[C@H](O)[C@H]2O)cc1 [Galβ1,4Glcβ-OPhNH2 (p)]	–	–	1.71	1.48	1.4	2	–	–	–
OC[C@H]1O[C@@H](O[C@H]2[C@H](O)[C@H](O)C(O)O[C@@H]2CO)[C@H](O)[C@@H](O)[C@H]1O (stereo partly shown) [Galβ1,4Man]	–	–	2.5	2.34	1.5	1.74	–	–	–
CC(=O)N[C@H]1[C@H](Oc2ccc([N+](=O)[O-])cc2)O[C@H](CO)[C@@H](O)[C@@H]1O[C@@H]1O[C@H](CO)[C@H](O)[C@H](O)[C@H]1O [Galβ1-3GlcNacβ-OPhNO2 (p)]	–	–	1.78	4.5	2.3	6.5	–	–	–
OC[C@H]1O[C@@H](S[C@@H]2O[C@H](CO)[C@H](O)[C@H](O)[C@H]2O)[C@H](O)[C@@H](O)[C@H]1O [Galβ1S1βGal, Thiodigalactoside]	–	–	3.9	9.0	12.2	10.0	–	–	approximately 10
CO[C@@H]1O[C@H](CO)[C@H](O)[C@H](O)[C@H]1O [Galβ-OMe]	–	–	0.006	0.0044	0.004	0.009	–	–	–
CO[C@H]1[C@H](O[C@H]2[C@H](O)[C@@H](O)C(O)O[C@@H]2CO)O[C@H](CO)[C@H](O)[C@@H]1O (stereo partly shown) [MeO-2Galβ1,4Glc]	–	–	2.5	4.08	2.9	3.33	–	–	–
Fucα1,2Galβ1,4Glc	–	–	0.17	0.36	0.35	0.33	–	–	–
Galβ1,6GlcNAc	–	–	0.83	0.12	0.03	0.225	–	–	–

Reference: article PMC12116657, “A “proto” type galectin expressed in striped bass (Morone saxatilis) tissues is released to epidermal mucus and binds to bacterial and mucus glycans” (Frontiers in Cellular and Infection Microbiology, 2025)
